# System: LXRα and/or LXRβ
# Assay: Co-transfection assay (LXRE luciferase reporter, CV-1 cells)
# Format: cell-based, human
# Settings: tested as described in Example 33; IC50 or EC50 for LXRα and/or LXRβ, isoform not specified; read-out: activity (IC50 or EC50 for LXR)
# From the text: To measure the ability of compounds to activate or inhibit the transcriptional activity of LXR in a cell based assay, the co-transfection assay was used. It has been shown that LXR functions as a heterodimer with RXR. For the co-transfection assay, expression plasmids for LXR and RXR are introduced via transient transfection into mammalian cells along with a luciferase reporter plasmid that contains one copy of a DNA sequence that is bound by LXR-RXR heterodimers (LXRE; Willy, P. et. al. 1995). Treatment of transfected cells with an LXR agonist increases the transcriptional activity of LXR, which is measured by an increase in luciferase activity.
# CV-1 African Green Monkey Kidney Cells Co-transfection expression plasmids, comprising full-length LXRα (pCMX-h LXRα, LXRβ (pCMX-hLXRβ), or RXRα (pCMX-RXR), reporter plasmid (LXREx1-Tk-Luciferase), and control (pCMX-Galactosidase expression vector) (Willey et al. Genes & Development 9 1033-1045 (1995)). Transfection reagent such as FuGENE6 (Roche). 1× Cell lysis buffer (1% Triton X 100 (J T Baker X200-07), 10% Glycerol (J T Baker M778-07), 5 mM Ditriotreitol (Quantum Bioprobe DTT03; add fresh before lysing), 1 mM EGTA (Ethylene Glycol-bis(B-Amino ethyl ether)-N,N,N′,N′-Tetracetic Acid) (Sigma E-4378), 25 mM Tricine (ICN 807420) pH 7.8) 1× Luciferase assay buffer (pH at 7.8) (0.73 mM ATP, 22.3 mM Tricine, 0.11 mM EDTA, 33.3 mM DTT) 1× Luciferrin/CoA (11 mM Luciferin, 3.05 mM Coenzyme A, 10 mM HEPES)
# CV-1 cells were prepared 24 hours prior to the experiment by plating them into T-175 flasks or 500 cm^2 dishes in order to achieve 70-80% confluency on the day of the transfection. The number of cells to be transfected was determined by the number of plates to be screened. Each 384 well plate requires 1.92×10^6 cells or 5000 cells per well. DNA Transfection Reagent was prepared by mixing the required plasmid DNAs with a cationic lipid transfection reagent FuGENE6 (Roche) by following the instructions provided with the reagents. Optimal DNA amounts were determined empirically per cell line and size of vessel to be transfected. 10-12 mL of media was added to the DNA Transfection Reagent and this mixture was added to the cells after aspirating media from the T175 cm^2 flask. Cells were then incubated at least 5 hours at 37° C. to prepare screening cells.
# Luciferase assay reagent was prepared by combining before use (per 10 mL): 10 mL 1× Luciferase assay buffer; 0.54 mL of 1× Luciferrin/CoA; 0.54 mL of 0.2 M Magnesium sulfate
# Assay plates were prepared by dispensing 5 μL, of compound per well of a 384 well plate to achieve final compound concentration of 10 μM and no more than 1% DMSO. Media was removed from the screening cells, the cells trypsinized, harvested cells by centrifugation, counted, and plated at a density of approximately 5000 cells per well in the 384 well assay plate prepared above in a volume of about 45 μL. Assay plates containing both compounds and screening cells (50 μL in total volume) were incubated for 20 hours at 37° C.
# After incubation with compounds, media was removed from the cells and lysis buffer (30 μL/well) added. After 30 minutes at ambient temperature, luciferase assay buffer (30 μL/well) was added and the assay plates read on a luminometer (PE Biosystems Northstar reader with on-board injectors, or equivalent). Plates were read immediately after addition of luciferase assay buffer.
# The LXR/LNRE co-transfection assay can be used to establish the EC50/IC50 values for potency and percent activity or inhibition for efficacy. Efficacy defines the activity of a compound relative to a high control ((N-(3-((4-fluorophenyl)-(naphthalene-2-sulfonyl)amino)propyl)-2,2-dimethylpropionamide)) or a low control (DMSO/vehicle). The dose response curves are generated from an 8 point curve with concentrations differing by ½ LOG units. Each point represents the average of 4 wells of data from a 384 well plate. […]
row,"IC50 or EC50 (potency, activation or inhibition) [nM]",Structure (SMILES)
1,< 1000,"CC(C)(O)c1cn(-c2ccc(-c3cccc(S(C)(=O)=O)c3)cc2Cl)c(-c2ccccc2Cl)n1 [Example 417, 2-{1-[3-chloro-3′-(methyl-sulfonyl)biphenyl-4-yl]-2-(2-chlorophenyl)-1H-imidazol-4-yl}propan-2-ol]"
2,< 1000,"CS(=O)(=O)c1cccc(-c2ccc(-n3cc(C(=O)NCC(F)(F)F)nc3-c3ccccc3Cl)cc2)c1 [Example 397, 2-(2-chlorophenyl)-1-[3′-(methyl-sulfonyl)biphenyl-4-yl]-N-(2,2,2-trifluoroethyl)-1H-imidazole-4-carboxamide]"
3,1000 to 10000,"CC(C)(O)c1ccc(-c2ccc(-n3cc(C(C)(C)O)nc3-c3cccc(Cl)c3Cl)cc2)cc1 [Example 477, 2-(2-(2,3-dichlorophenyl)-1-(4′-(2-hydroxypropan-2-yl)biphenyl-4-yl)-1H-imidazol-4-yl)propan-2-ol]"
4,< 1000,"CCS(=O)(=O)c1cccc(-c2ccc(-n3cc(C(C)(C)O)nc3Cc3cc(Cl)ccc3F)cc2)c1 [Example 482, 2-(2-(5-chloro-2-fluorobenzyl)-1-(3′-(ethylsulfonyl)biphenyl-4-yl)-1H-imidazol-4-yl)propan-2-ol]"
5,< 1000,"CC(C)(O)c1nc(-c2ccccc2C(F)(F)F)n(-c2ccc(-c3cccc(S(C)(=O)=O)c3)cc2)c1Cl [Example 403, 2-{5-chloro-1-[3′-(methyl-sulfonyl)biphenyl-4-yl]-2-[2-(trifluoro-methyl)phenyl]-1H-imidazol-4-yl}propan-2-ol]"
6,< 1000,"CC(C)(O)c1cn(-c2ccc(-c3cccc(S(C)(=O)=O)c3)cc2)c(-c2cccc(F)c2Cl)n1 [Example 383, 2-{2-(2-chloro-3-fluorophenyl)-1-[3′-(methylsulfonyl)biphenyl-4-yl]-1H-imidazol-4-yl}propan-2-ol]"
7,< 1000,"CC(C)(O)c1cn(-c2ccc(-c3cccc(S(C)(=O)=O)c3)cc2)c(-c2cccc(Cl)c2)n1 [Example 393, 2-{2-(3-chlorophenyl)-1-[3′-(methyl-sulfonyl)biphenyl-4-yl]-1H-imidazol-4-yl}propan-2-ol]"

# Second part, the molecule before the results:
row,Structure (SMILES),"IC50 or EC50 (potency, activation or inhibition) [nM]"
1,"CC(C)S(=O)(=O)c1cccc(-c2ccc(-n3cc(C(F)(F)F)nc3-c3ccccc3C(F)(F)F)cc2)c1 [Example 373, 1-{3′-[(1-methylethyl)sulfonyl]biphenyl-4-yl}-4-(trifluoromethyl)-2-[2-(trifluoromethyl)phenyl]-1H-imidazole]",< 1000
2,"CC(C)(O)c1cn(-c2ccc(-c3ccc(CO)c(S(C)(=O)=O)c3)cc2Cl)c(-c2c(F)cccc2F)n1 [Example 159, 2-(1-(3-chloro-4′-(hydroxymethyl)-3′-(methylsulfonyl)biphenyl-4-yl)-2-(2,6-difluorophenyl)-1H-imidazol-4-yl)propan-2-ol]",< 1000
3,"CCS(=O)(=O)c1cccc(-c2ccc(-n3cc(C(C)(C)O)nc3-c3cccc(Cl)c3Cl)c(Cl)c2)c1 [Example 141, 2-(1-(3-chloro-3′-(ethyl-sulfonyl)biphenyl-4-yl)-2-(2,3-dichlorophenyl)-1H-imidazol-4-yl)propan-2-ol]",< 1000
4,"C=C(C)c1cn(-c2ccc(-c3cccc(S(C)(=O)=O)c3)cc2)c(-c2c(Cl)cccc2Cl)n1 [Example 78, 2-(2,6-dichlorophenyl)-1-(3′-(methylsulfonyl)biphenyl-4-yl)-4-(prop-1-en-2-yl)-1H-imidazole]",< 1000
5,"CC(C)(O)c1cn(-c2ccc(-c3cccc(S(C)(=O)=O)c3)cc2F)c(-c2c(F)cccc2F)n1 [Example 130, 2-(2-(2,6-difluorophenyl)-1-(3-fluoro-3′-(methylsulfonyl)biphenyl-4-yl)-1H-imidazol-4-yl)propan-2-ol]",1000 to 10000
6,"CC(C)(O)c1cn(-c2ccc(-c3cccc(S(C)(=O)=O)c3)cc2Cl)c(-c2c(Cl)cccc2Cl)n1 [Example 142, 2-(1-(3-chloro-3′-(methyl-sulfonyl)biphenyl-4-yl)-2-(2,6-dichlorophenyl)-1H-imidazol-4-yl)propan-2-ol]",< 1000
7,"Cc1cc(-c2cccc(S(C)(=O)=O)c2)ccc1-n1cc(C(=O)NCC(F)(F)F)nc1-c1c(Cl)cccc1Cl [Example 85, 2-(2,6-dichlorophenyl)-1-(3-methyl-3′-(methylsulfonyl)biphenyl-4-yl)-N-(2,2,2-trifluoroethyl)-1H-imidazole-4-carboxamide]",< 1000
8,"CC(C)(O)c1cn(-c2c(Cl)cccc2Cl)c(-c2ccc(-c3cccc(S(C)(=O)=O)c3)s2)n1 [Example 44, 2-(1-(2,6-dichlorophenyl)-2-(5-(3-(methylsulfonyl)phenyl)thiophen-2-yl)-1H-imidazol-4-yl)propan-2-ol]",1000 to 10000
9,"Cc1c(Cl)cccc1-c1nc(C(C)(C)O)cn1-c1ccc(-c2ccc(CO)c(S(C)(=O)=O)c2)cc1F [Example 120, 2-(2-(3-chloro-2-methylphenyl)-1-(3-fluoro-4′-(hydroxymethyl)-3′-(methylsulfonyl)biphenyl-4-yl)-1H-imidazol-4-yl)propan-2-ol]",< 1000
10,"CC(C)(O)c1cn(-c2ccc(-c3ccc(CO)c(S(C)(=O)=O)c3)cc2F)c(-c2c(F)cccc2Cl)n1 [Example 127, 2-(2-(2-chloro-6-fluorophenyl)-1-(3-fluoro-4′-(hydroxymethyl)-3′-(methylsulfonyl)biphenyl-4-yl)-1H-imidazol-4-yl)propan-2-ol]",1000 to 10000
11,"CC(C)(O)c1cn(-c2ccc(-c3cccc(S(C)(=O)=O)c3)cc2F)c(-c2c(F)cccc2Cl)n1 [Example 134, 2-(2-(2-chloro-6-fluorophenyl)-1-(3-fluoro-3′-(methylsulfonyl)biphenyl-4-yl)-1H-imidazol-4-yl)propan-2-ol]",< 1000
12,"CCS(=O)(=O)c1cccc(-c2ccc(-n3cc(C(C)(C)O)nc3-c3ccccc3C(F)(F)F)c(F)c2)c1 [Example 110, 2-(1-(3′-(ethylsulfonyl)-3-fluoro-biphenyl-4-yl)-2-(2-(trifluoromethyl)phenyl)-1H-imidazol-4-yl)propan-2-ol]",< 1000
13,"Cc1c(Cl)cccc1-c1nc(C(C)(C)O)cn1-c1ccc(-c2cccc(S(C)(=O)=O)c2)cc1Cl [Example 143, 2-(2-(3-chloro-2-methylphenyl)-1-(3-chloro-3′-(methylsulfonyl)biphenyl-4-yl)-1H-imidazol-4-yl)propan-2-ol]",< 1000
14,"CC(C)(O)c1cn(-c2ccc(-c3ccc(CO)c(S(C)(=O)=O)c3)cc2F)c(-c2cccc(Cl)c2Cl)n1 [Example 117, 2-(2-(2,3-dichlorophenyl)-1-(3-fluoro-4′-(hydroxymethyl)-3′-(methyl-sulfonyl)biphenyl-4-yl)-1H-imidazol-4-yl)propan-2-ol]",< 1000
15,"Cc1cc(-c2ccc(CO)c(S(C)(=O)=O)c2)ccc1-n1cc(C(C)(C)O)nc1-c1cccc(Cl)c1Cl [Example 176, 2-(2-(2,3-dichlorophenyl)-1-(4′-(hydroxymethyl)-3-methyl-3′-(methylsulfonyl)biphenyl-4-yl)-1H-imidazol-4-yl)propan-2-ol]",< 1000
